Assays:
spleen cell of the mouse = assay: Test 4: T cell populations in spleen cells of immunized mice by flow cytometry; format: in vivo; settings: intramuscular with OVA, liposome formulation, compared with the negative control group
Method: The equal mixture prepared in Test 3 of ovalbumin (OVA) (2 mg/mL) and the formulation prepared in Example 6, Example 7, or Reference example 16 (containing 0.2 or 2 mg/mL the compound of Example 1, Example 2, or Reference example 9) was administered to a mouse (100 μL/mouse). The spleen cell of the mouse was prepared, OVA and Brefeldin A (eBioscience) were added the cell, and the cell was cultured overnight. The collected cell was stained with APC-labeled antimouse CD3e antibody (Invitrogen), PerCP-labeled antimouse CD4 antibody (BioLegend), and Fixable Viability Dye eFluor™ 520 (invitorgen), and fixed with Fixation/Permeabilization buffer (Invitrogen). The cell was treated with Permeabilization buffer (Invitrogen), and then stained with antibody cocktail BV421-labeled anti-IFN-γ antibody (BioLegend), PE-Cy7-labeled anti-IL-2 antibody (eBioscience), and PE-labeled TNF-α (BioLegend). The data were taken and analyzed with FACS Cant II (BD Biosciences) and FLOWJO software (TreeStar).
Separately, the spleen cell was stained with V450-labled antimouse CD3e antibody (invitrogen), Alexa Fluor™ 647-labeled antimouse CD8 antibody (MBL), PE-labeled H-2Kb OVA Tetramer-SIINFEKL (MBL), and Fixable Viability dye eFluor 520 (invitrogen). The data were taken and analyzed with FACS Cant II (BD Biosciences) and FLOWJO software (TreeStar).
Further separately, the spleen cell was stained with V450-labeled antimouse CD3e antibody (invitrogen), Alexa Fluor™ 647-labeled antimouse CD8 antibody (MBL), PE-Cy7-labeled antimouse CD44 antibody (Invitrogen), PerCP-Cy5.5-labeled antimouse CD62L antibody (Invitrogen), and Fixable Viability dye eFluor 520 (Invitrogen). The data were taken and analyzed with FACS Cant II (BD Biosciences) and FLOWJO software (TreeStar).

OVA-specific IgG2c = assay: Test 3: OVA-specific IgG2c in serum of immunized mice by ELISA; format: in vivo, C57BL/6 male mouse; settings: mouse, intramuscular with OVA, liposome formulation, 10 or 100 μg/mouse, two immunizations, serum one week after the additional immunization; compared with the negative control group
Method: FIG. 1 is a graph showing the results of measuring OVA-specific IgG2c in immunized mouse serum in mice to which the formulation prepared in Example 6 or 7 was intramuscularly administered, by ELISA in Test 3. The vertical axis indicates the antibody titer of OVA-specific IgG2c in serum. The horizontal axis indicates the administered sample (administered dose in parentheses). 1: negative control group (phosphate buffered saline), 2: Example 6 administration group (the compound of Example 1, 10 μg/mouse), 3: Example 6 administration group (the compound of Example 1, 100 μg/mouse), 4: Example 7 administration group (the compound of Example 2, 10 μg/mouse), 5: Example 7 administration group (the compound of Example 2, 100 μg/mouse).
FIG. 2 is a graph showing the results of measuring OVA-specific IgG2c in immunized mouse serum in mice to which the formulation prepared in Reference Example 16 or Example 6 was intramuscularly administered, by ELISA in Test 3. The vertical axis indicates the antibody titer of OVA-specific IgG2c in serum. The horizontal axis indicates the administered sample (administered dose in parentheses). […]
An equal mixture of ovalbumin (OVA) (2 mg/mL) as an antigen and the formulation prepared in Example 6, Example 7, or Reference example 16 (containing 0.2 or 2 mg/mL the compound of Example 1, Example 2, or Reference example 9) was intramuscularly administered to the gastrocnemius of a 7-week-old C57BL/6 male mouse (100 μL/mouse), which was defined as the first immunization. […] The OVA-specific IgG2c value in each serum was measured by the following ELISA method. To 96-well plate, OVA solution (SIGMA) was added, 1% Skim Milk (Wako) was added for blocking, the serum sample which was diluted with phosphate buffer solution was added, caprine antimouse IgG2c (Southern Bio) as the secondary antibody was added, SureBlue™ TMB Micrewell Peroxidase Substrate (KPL) was added, and then the product of the enzymatic reaction was quantified with a microplate reader.

SMILES	percentage of CD8-positive effector memory T-lymphocyte (spleen cell of the mouse)	percentage of MHC-restricted OVA-specific CD8-positive T-lymphocyte (OVA tetramer-positive CD8T cell) (spleen cell of the mouse)	percentage of OVA-specific type 1 helper T-cell (spleen cell of the mouse)	OVA-specific IgG2c induction (OVA-specific IgG2c)
CCCCCCCCCCC[C@H](CC(=O)NC1C(OC[C@@H](NC(=O)C[C@@H](CCCCCCCCCCC)OC(=O)CCCCCCCCC)C(=O)O)OC(CO)C(OP(=O)(O)O)C1OC(=O)C[C@@H](CCCCCCCCCCC)OC(=O)CCCCCCCCc1ccccc1)OC(=O)CCCCCCCCC (stereo partly drawn) [Reference example 9, (2R)-2-{[(3R)-3-(Decanoyloxy)tetradecanoyl]amino}-3-{[3-{[(3R)-3-(decanoyloxy)tetradecanoyl]amino}-6-(hydroxymethyl)-4-({(3R)-3-[(9-phenylnonanoyl)oxy]tetradecanoyl}oxy)-5-(phosphonooxy)oxan-2-yl]oxy}propanoic acid, reference compound]	significantly increased	significantly increased	significantly increased	significantly strong
CCCCCCCCCCC[C@H](CC(=O)NC1C(OC[C@@H](NC(=O)C[C@@H](CCCCCCCCCCC)OC(=O)CCCCCCCCC)C(=O)O)OC(CO)C(O)C1OC(=O)C[C@@H](CCCCCCCCCCC)OC(=O)CCCCCCCCc1ccccc1)OC(=O)CCCCCCCCC (stereo partly drawn) [Example 1, (2R)-2-{[(3R)-3-(Decanoyloxy)tetradecanoyl]amino}-3-{[3-{[(3R)-3-(decanoyloxy)tetradecanoyl]amino}-5-hydroxy-6-(hydroxymethyl)-4-({(3R)-3-[(9-phenylnonanoyl)oxy]tetradecanoyl}oxy)oxan-2-yl]oxy}propanoic acid]	significantly increased	significantly increased	significantly increased	significantly strong
CCCCCCCCCCC[C@H](CC(=O)NC1C(OC[C@H](NC(=O)C[C@@H](CCCCCCCCCCC)OC(=O)CCCCCCCCC)C(=O)O)OC(CO)C(O)C1OC(=O)C[C@@H](CCCCCCCCCCC)OC(=O)CCCCCCCCc1ccccc1)OC(=O)CCCCCCCCC (stereo partly drawn) [Example 2, (2S)-2-{[(3R)-3-(decanoyloxy)tetradecanoyl]amino}-3-{[3-{[(3R)-3-(decanoyloxy)tetradecanoyl]amino}-5-hydroxy-6-(hydroxymethyl)-4-({(3R)-3-[(9-phenylnonanoyl)oxy]tetradecanoyl}oxy)oxan-2-yl]oxy}propanoic acid]	significantly increased	significantly increased	significantly increased	significantly strong

Source: patent US20230287027A1, “ADJUVANT WITH TLR4 AGONIST ACTIVITY” (Sumitomo Pharma Co., Ltd, priority 2020, published 2023)
